The Deep4Chem optical property database
One block for each compound: values may come before it.

Experiment: solvent given as SMILES

- absorption maximum (in CC#N): 506 nm
- absorption maximum (in ClCCl): 506 nm
Compound: COc1ccc2nc(/N=N/c3ccc(N(C)C)cc3)sc2c1

- absorption maximum (in ClCCl): 361 nm
Compound: C(#Cc1ccc(-n2c3ccccc3c3ccccc32)cc1)c1ccc(-c2nc(-c3ccc(C#Cc4ccc(-n5c6ccccc6c6ccccc65)cc4)cc3)nc(-c3ccc(C#Cc4ccc(-n5c6ccccc6c6ccccc65)cc4)cc3)n2)cc1

- absorption maximum (in ClCCl): 749 nm
Compound: CCN(CC)c1ccc2c(-c3ccccc3C(=O)O)c3c([o+]c2c1)/C(=C/C=C/c1ccc(N(C)C)cc1)CCC3

- absorption maximum (in ClC(Cl)Cl): 524 nm
Compound: CCCCN1C(=O)c2ccc3c4c(Br)cc5c6c(ccc(c7c(Br)cc(c2c37)C1=O)c64)C(=O)N(CCCC)C5=O

- absorption maximum (in ClCCl): 431 nm
Compound: c1ccc(C2=C(c3ccccc3)c3cccc4c5c(cc(c34)O2)=NC2CCCCC2N=5)cc1 (stereo unspecified)

- absorption maximum (in ClCCl): 395 nm
Compound: COc1ccc(C2=Cc3cc4ccccc4cc3P2(=O)c2ccccc2)cc1 (stereo unspecified)

- absorption maximum (in ClC(Cl)Cl): 359 nm
Compound: c1ccc(-n2c(-c3ccc(-c4ccc5c(c4)C4(c6ccccc6-c6ccccc64)c4cc(-c6ccc(-c7nc8ccccc8n7-c7ccccc7)cc6)c6ccccc6c4-5)cc3)nc3ccccc32)cc1

Compound: CCC1=C(C)C2=C(c3cc(C(=O)Cl)cc(C(=O)Cl)c3)c3c(C)c(CC)c(C)n3[B-](F)(F)[N+]2=C1C
- absorption maximum (in C1CCOC1): 528 nm
- absorption maximum (in CC#N): 524 nm
- absorption maximum (in CN(C)C=O): 529 nm
- absorption maximum (in Cc1ccccc1): 531 nm
- absorption maximum (in ClC(Cl)Cl): 532 nm

- absorption maximum (in ClCCl): 404 nm
Compound: N#CC(C#N)=Cc1ccc2c(c1)c1ccccc1n2-c1cccc2ccccc12

- absorption maximum (in CCO): 383.73 nm
Compound: Cc1ccc2cc3cc(C)ncc3cc2c1

- absorption maximum (in CCO): 193 nm
Compound: CC(C)=NO

- absorption maximum (in ClCCl): 345 nm
Compound: c1ccc(N(c2ccccc2)c2ccc(-c3ccc4c(c3)C3(c5cc(-c6ccc(N(c7ccccc7)c7ccccc7)cc6)ccc5O4)c4ccccc4-c4ccccc43)cc2)cc1

- absorption maximum (in C1CCCCC1): 310 nm
Compound: CCn1c2ccccc2c2ccc(-c3ccc(OC)cc3)cc21

- absorption maximum (in C1CCOC1): 367 nm
- absorption maximum (in CO): 371 nm
Compound: CCOC(=O)C1=CN(Cc2ccccc2)C=C(C(=O)OCC)C1

- absorption maximum (in ClC(Cl)Cl): 515 nm
Compound: CCCCCCCCn1c(=O)c2cc3cc4cc5c(=O)n(CCCCCCCC)c(=O)c5cc4c(C#Cc4ccc(N(c5ccccc5)c5ccccc5)cc4)c3cc2c1=O

Compound: Cc1ccc(-n2c(-c3ccccc3[NH-])[nH+]c3c4ccccc4c4ccccc4c32)cc1
- absorption maximum (in Cc1ccccc1): 363 nm

Compound: CCN(CC)c1ccc2cc(/C=C/C(=C(C#N)C#N)c3ccc(N(c4ccccc4)c4ccccc4)cc3)c(=O)oc2c1
- absorption maximum (in CC(C)=O): 516 nm
- absorption maximum (in CCOC(C)=O): 507 nm
- absorption maximum (in CN(C)C=O): 528 nm
- absorption maximum (in CS(C)=O): 536 nm
- absorption maximum (in Cc1ccccc1): 493 nm
- absorption maximum (in ClCCl): 518 nm

- absorption maximum (in ClC(Cl)Cl): 336 nm
Compound: COc1ccc2cc(-c3ccccc3CC#N)c(=O)oc2c1

- absorption maximum (in ClCCl): 400 nm
Compound: c1ccc(N(c2ccccc2)c2ccc(-c3nc4c5ccccc5c5ccccc5c4n3-c3ccccc3)cc2)cc1

Compound: CCN(CC)c1ccc2cc(/C=C/C(O)=C/C(C)=O)c(=O)oc2c1
- absorption maximum (in CC#N): 456 nm
- absorption maximum (in CC(C)=O): 456 nm
- absorption maximum (in CCOC(C)=O): 447 nm
- absorption maximum (in CO): 458 nm
- absorption maximum (in CS(C)=O): 470 nm
- absorption maximum (in Cc1ccccc1): 447 nm
- absorption maximum (in ClC(Cl)Cl): 455 nm
- absorption maximum (in ClCCl): 456 nm

- absorption maximum (in CC#N): 392 nm
- absorption maximum (in ClCCl): 394 nm
Compound: COC(=O)c1cc(=O)n(C)c2cc(-c3ccccc3)sc12

Compound: CCc1c(C)[nH]c(C2=[N+]3C(=Cc4c(C)c(CC)c(C)n4[B-]3(F)F)c3ccccc32)c1C
- absorption maximum (in C1CCOC1): 629 nm
- absorption maximum (in CC#N): 620 nm
- absorption maximum (in CCCCCC): 629 nm
- absorption maximum (in CO): 623 nm
- absorption maximum (in Cc1ccccc1): 636 nm
- absorption maximum (in ClCCl): 629 nm

- absorption maximum (in CO): 765 nm
Compound: CC1(C)C(/C=C/C2=C(Oc3ccc(CCN=C=S)cc3)C(=C/C=C3/N(CCCS(=O)(=O)[O-])c4ccccc4C3(C)C)/CCC2)=[N+](CCCS(=O)(=O)[O-])c2ccccc21

Compound: CC/C=C/C=C/C=C/C=C/CCCCCCCC(=O)O
- absorption maximum (in C1COCCO1): 317.3 nm
- absorption maximum (in CCCCCC): 313.5 nm
- absorption maximum (in CCCCCCCCCC): 315.3 nm
- absorption maximum (in CCCCO): 315.2 nm
- absorption maximum (in CCO): 313.8 nm
- absorption maximum (in CCOCC): 313.5 nm
- absorption maximum (in CO): 313 nm
- absorption maximum (in ClC(Cl)Cl): 319.6 nm
- absorption maximum (in c1ccccc1): 320 nm

- absorption maximum (in ClCCl): 607 nm
Compound: CC(C)c1cccc(C(C)C)c1N1C(=O)c2ccc3c4c(-c5ccc(C(=O)O)cc5)c5ccc6c7c(cc8c9cc(C(=O)O)ccc9c(c9ccc(c2c39)C1=O)c4c8c57)C(=O)N(c1c(C(C)C)cccc1C(C)C)C6=O

- absorption maximum (in CN(C)C=O): 526 nm
Compound: O=C1NC(=O)c2ccc3c4ccc5c6c(ccc(c7ccc1c2c73)c64)C(=O)N(c1ccc(Cl)cc1)C5=O

- absorption maximum (in ClCCl): 424 nm
Compound: COc1ccc2cc(/C=C/c3nc(/C=C/c4ccc(N(c5ccccc5)c5ccccc5)cc4)cc(/C=C/c4ccc(N(c5ccccc5)c5ccccc5)cc4)n3)ccc2c1

- absorption maximum (in ClCCl): 311 nm
Compound: COC(=O)C1=C(C(=O)OC)C2(c3ccccc3-c3c(C(=O)OC)cccc32)[C@@H](c2ccc(Cl)cc2)C=C2c3cc(OC)c(OC)cc3CCN21 (stereo partly specified)

- absorption maximum (in CO): 357 nm
- absorption maximum (in ClCCl): 363 nm
Compound: CCCCCCN(CCCCCC)c1ccc(C#Cc2c(F)c(F)c(F)c(F)c2F)cc1

- absorption maximum (in CC#N): 340 nm
Compound: N#Cc1nn(-c2ccc(F)cc2)nc1N1CCCC1

Compound: c1ccc(-n2c(-c3ccc(-c4ccc(-c5ccc(-c6nc7c8ccccc8c8ccccc8c7n6-c6ccccc6)cc5)cc4)cc3)nc3ccccc32)cc1
- absorption maximum (in C1CCOC1): 341 nm
- absorption maximum (in C1COCCO1): 344 nm
- absorption maximum (in CC#N): 337 nm
- absorption maximum (in CCCCCC): 341 nm
- absorption maximum (in CCCCOCCCC): 340 nm
- absorption maximum (in CCN(CC)CC): 341 nm
- absorption maximum (in CCOC(C)=O): 339 nm
- absorption maximum (in CCOCC): 340 nm
- absorption maximum (in CN(C)C=O): 342 nm
- absorption maximum (in Cc1ccccc1): 345 nm
- absorption maximum (in ClC(Cl)Cl): 340 nm
- absorption maximum (in ClC=C(Cl)Cl): 343 nm
- absorption maximum (in ClCCl): 340 nm

- absorption maximum (in C1COCCO1): 447 nm
- absorption maximum (in CC#N): 441 nm
- absorption maximum (in CCCCOCCCC): 453 nm
- absorption maximum (in CCOC(C)=O): 451 nm
Compound: CC(=O)Nc1ccc2c3cccc4cccc(c5cccc1c52)c43

- absorption maximum (in CC#N): 360 nm
- absorption maximum (in CCCCCCCCCCCCCCCC): 351 nm
- absorption maximum (in CO): 368 nm
- absorption maximum (in ClC(Cl)Cl): 359 nm
- absorption maximum (in c1ccccc1): 356 nm
Compound: CC(C)(C)C1Nc2c(Br)cc(Br)cc2C(=O)N1Cc1ccccc1 (stereo unspecified)

- absorption maximum (in O): 397 nm
Compound: CC[n+]1c(-c2ccccc2)c2cc(NC(N)=[NH2+])ccc2c2ccc(NC(N)=[NH2+])cc21

- absorption maximum (in ClCCl): 402 nm
Compound: CCCCn1c2ccccc2c2cc(C#Cc3ccc4ccc5cccc6ccc3c4c56)ccc21

- absorption maximum (in ClCCl): 346 nm
Compound: C[Si]1(C)c2ccc(C#Cc3ccccc3)cc2C=Cc2cc(C#Cc3ccccc3)ccc21

- absorption maximum (in ClCCl): 447 nm
Compound: CC(C)c1cccc(C(C)C)c1N1C(c2ccccc2)=Cc2ccc3ccccc3[n+]2[B-]1(F)F

Compound: COc1nnc(Cl)nn1
- absorption maximum (in ClCCl): 520 nm
- absorption maximum (in OCC(F)(F)F): 518 nm

- absorption maximum (in CCO): 709 nm
Compound: C[Si]1(C)C2=CC(=[N+]3CCC3)C=C(F)C2=Nc2c(F)cc(N3CCC3)cc21

Compound: Cc1cc(-n2c3ccccc3c3cc4c(cc32)C2c3ccccc3C4c3ccccc32)c(C)cc1-c1nc(-c2ccccc2)nc(-c2ccccc2)n1
- absorption maximum (in Cc1ccccc1): 345 nm

- absorption maximum (in CCO): 382 nm
Compound: Cc1c(COC(=O)c2ccccc2Br)n2c(OCC(=O)c3ccccc3Br)c(C)c(=O)n2c1=O

- absorption maximum (in ClCCl): 377 nm
Compound: CC(C)(C)c1ccc(-n2c(-c3ccc(N(c4ccc(-c5ccc(N(c6ccc(-c7nc8c9ccccc9c9ccccc9c8n7-c7ccc(C(C)(C)C)cc7)cc6)c6ccc(-c7nc8c9ccccc9c9ccccc9c8n7-c7ccc(C(C)(C)C)cc7)cc6)cc5)cc4)c4ccc(-c5nc6c7ccccc7c7ccccc7c6n5-c5ccc(C(C)(C)C)cc5)cc4)cc3)nc3c4ccccc4c4ccccc4c32)cc1

- absorption maximum (in CS(C)=O): 399 nm
Compound: O=c1c2cc(S(=O)(=O)Cl)ccc2[nH]c2ccc(S(=O)(=O)Cl)cc12

Compound: CCCCCCCCOc1ccc(C#Cc2ccc(C#Cc3ccc(OCCCCCCCC)c(OCCCCCCCC)c3)c3nc4c5ccccc5c5ccccc5c4nc23)cc1OCCCCCCCC
- absorption maximum (in C1CCOC1): 461 nm
- absorption maximum (in Cc1ccccc1): 461 nm
- absorption maximum (in ClCCl): 461 nm

- absorption maximum (in C1CCOC1): 391 nm
Compound: CCCCCCC1(CCCCCC)c2cc(-c3nc(-c4ccc5c(c4)C(CCCCCC)(CCCCCC)c4cc(N6c7ccccc7Oc7ccccc76)ccc4-5)nc(-c4ccc5c(c4)C(CCCCCC)(CCCCCC)c4cc(N6c7ccccc7Oc7ccccc76)ccc4-5)n3)ccc2-c2ccc(N3c4ccccc4Oc4ccccc43)cc21

- absorption maximum (in CCCCCC): 607 nm
Compound: CC(C)[Si](C#Cc1c2nsnc2c(C#C[Si](C(C)C)(C(C)C)C(C)C)c2nc3c(ccc4ccccc43)nc12)(C(C)C)C(C)C

- absorption maximum (in C1CCCCC1): 295 nm
Compound: C=Cc1cccc(OC)c1

Compound: Oc1ccc2ccccc2c1C1Nc2cccc3cccc(c23)N1
- absorption maximum (in CC#N): 334 nm
- absorption maximum (in CO): 333 nm
- absorption maximum (in CS(C)=O): 350 nm
- absorption maximum (in Cc1ccccc1): 337 nm

- absorption maximum (in CO): 387 nm
Compound: O=C(O)c1ccc(-c2cnc(-c3ccc(N(c4ccccc4)c4ccccc4)cc3)s2)cc1

- absorption maximum (in C1CCOC1): 565 nm
Compound: CC1=CS[C@]2(C)C1=C1C(=C3C(C)=C(c4ccc(-c5nc(-c6ccccc6)c(-c6ccccc6)[nH]5)cc4)S[C@]32C)C(F)(F)C(F)(F)C1(F)F

- absorption maximum (in C1CCCCC1): 351 nm
- absorption maximum (in CC#N): 346 nm
Compound: CN(C)c1ccc(-c2nc3cccnc3[nH]2)cc1

- absorption maximum (in CCO): 403 nm
Compound: CN(C)c1ccc2c(C(=O)NCc3ccccc3)cc(C(=O)[O-])nc2c1

- absorption maximum (in CC#N): 397 nm
Compound: c1ccc2c(c1)ncc1ccc3cnc4ccccc4c3c12

- absorption maximum (in ClC(Cl)Cl): 422 nm
Compound: COc1ccc2c(C#N)cc3ccc4cc(C#N)c5ccc(OC)cc5c4c3c2c1

- absorption maximum (in CC#N): 376 nm
- absorption maximum (in CN(C)C=O): 410 nm
- absorption maximum (in ClCCl): 403 nm
Compound: CCN(CC)c1ccc(/C=N/C2CCCCC2/N=C/c2ccc(N(CC)CC)cc2O)c(O)c1 (stereo unspecified)
